The results in this text go back to patent US8119645B2, “Fungicide hydroximoyl-tetrazole derivatives” (Bayer Cropscience AG, priority 2006, dated 2012).

SMILES strings stand for the structures.

The data set in a line: logP by reversed-phase HPLC (EEC Directive 79/831 Annex V.A8). In kind it is physicochemical. The note with it: HPLC C18, 40° C., 0.1% aqueous formic acid / acetonitrile gradient.
Method: Temperature: 40° C.; Mobile phases: 0.1% aqueous formic acid and acetonitrile; linear gradient from 10% acetonitrile to 90% acetonitrile.
As a reminder, the LogP is the decadic logarithm of the partition coefficient of the neutral form, usually between octanol and water. Read a low LogP as a more hydrophilic compound. Compound `Cc1nnnn1C(=NOCc1csc(NC(=O)C(C)C)n1)c1ccc(Br)s1` [Compound 94] came in with a log partition coefficient (LogP) of 3.22.
Take `Cc1ccc(C(=NOCc2cccc(NC(=O)OCCc3ccccc3)n2)n2nnnc2C)s1` [Compound 125]: the lipophilicity (LogP) is 4.02.
The result for `CCCCCC(=O)Nc1cccc(CON=C(c2ccsc2Cl)n2nnnc2C)n1` [Compound 3] reads 3.65; that for `CCCC(=O)Nc1nc(CON=C(c2cc(-c3ccccc3)c(Cl)s2)n2nnnc2C)cs1` [Compound 79], 4.18; that for `CCCCCC(=O)Nc1nc(CON=C(c2ccsc2)n2nnnc2C)cs1` [Compound 30], 3.25.
Regarding `Cn1nnnc1C(=NOCc1csc(NC(=O)Cc2ccccc2)n1)c1csc(-c2ccccc2)n1` [Compound 172], the lipophilicity (LogP) is 3.58.
As for `C=CCNC(=O)Nc1nc(CON=C(c2ccsc2)n2nnnc2C)cs1` [Compound 27], the lipophilicity (LogP) was 2.22.
Under `Cc1nnnn1C(=NOCc1csc(NC(=O)Cc2ccccc2)n1)c1ccc(Br)s1` [Compound 93] stands 3.53; under `Cc1nnnn1C(=NOCc1csc(NC(=O)C2CC2)n1)c1ccc(Cl)s1` [Compound 101], 3.
Under `COCCOC(=O)Nc1nc(CON=C(c2ccc(C)o2)n2nnnc2C)cs1` [Compound 71] stands 2.37; under `Cc1nnnn1C(=NOCc1csc(NC(=O)C(C)(C)C)n1)c1ccc(-c2ccccc2)s1` [Compound 53], 4.24.
For the compound `Cc1nnnn1C(=NOCc1csc(NC(=O)C(C)(C)C)n1)c1ccc(Br)s1` [Compound 87], the LogP is on record as 3.74.
Under `Cn1nnnc1C(=NOCc1cccc(NC(=O)C(C)(C)C)n1)c1csc(-c2ccccc2)n1` [Compound 176] stands 3.7; under `CCCCCNC(=O)Nc1nc(CON=C(c2ccsc2)n2nnnc2C)cs1` [Compound 22], 2.99; under `Cc1nnnn1C(=NOCc1csc(NC(=O)c2ccccc2)n1)c1ccsc1Cl` [Compound 4], 3.26.
As for `Cc1ccc(C(=NOCc2csc(NC(=O)Cc3ccccc3)n2)n2nnnc2C)o1` [Compound 65], the LogP is 2.92.
Under `CCCCCCCCC(=O)Nc1nc(CON=C(c2ccsc2Cl)n2nnnc2C)cs1` [Compound 11] stands 4.77.
On to `CCCCCOC(=O)Nc1cccc(CON=C(c2csc(-c3ccccc3)n2)c2nnnn2C)n1` [Compound 177], for which the lipophilicity (LogP) is reported as 4.56.
Under `COCCOCC(=O)Nc1cccc(CON=C(c2ccsc2Cl)n2nnnc2C)n1` [Compound 15] stands 2.61.
The result for `COCCOC(=O)Nc1nc(CON=C(c2ccsc2)n2nnnc2C)cs1` [Compound 49] reads 2.3; that for `CCCCCC(=O)Nc1nc(CON=C(c2ccc(-c3ccc(Cl)c(Cl)c3)o2)n2nnnc2C)cs1` [Compound 85], 4.78; that for `Cc1nnnn1C(=NOCc1cccc(N)n1)c1ccsc1` [Compound 19], 1.28.
Under `Cc1nnnn1C(=NOCc1csc(NC(=O)NCc2ccccc2)n1)c1ccc(Cl)s1` [Compound 105] stands 3.32; under `CCCCCC(=O)Nc1nc(CON=C(c2cc(-c3ccccc3)c(Cl)s2)n2nnnc2C)cs1` [Compound 80], 4.88; under `CCCCCOC(=O)Nc1nc(CON=C(c2csc(-c3ccccc3)n2)c2nnnn2C)cs1` [Compound 167], 4.29.
On to `Cc1nnnn1C(=NOCc1csc(NC(=O)c2ccccc2)n1)c1ccc(Br)s1` [Compound 91], for which the LogP stood at 3.61.
The result for `Cc1nnnn1C(=NOCc1cccc(N)n1)c1ccsc1Cl` [Compound 14] reads 1.39; that for `C=CCC(=O)Nc1nc(CON=C(c2ccsc2)n2nnnc2C)cs1` [Compound 40], 2.51.
As for `Cn1nnnc1C(=NOCc1cccc(NC(=O)Cc2ccccc2)n1)c1csc(-c2ccccc2)n1` [Compound 175], the LogP stood at 3.72.
The result for `Cc1nnnn1C(=NOCc1csc(NC(=O)CCCc2ccccc2)n1)c1ccc(Cl)s1` [Compound 107] reads 4.12.
Under `CCCCCC(=O)Nc1cccc(CON=C(c2ccsc2)n2nnnc2C)n1` [Compound 36] stands 3.39; under `Cc1nnnn1C(=NOCc1csc(NC(=O)CCCc2ccccc2)n1)c1ccsc1` [Compound 45], 3.49; under `Cc1nnnn1C(=NOCc1csc(N)n1)c1ccc(Br)s1` [Compound 86], 2.07.
Under `Cc1ccc(C(=NOCc2cccc(NC(=O)OCCc3ccccc3)n2)n2nnnc2C)o1` [Compound 75] stands 3.78; under `Cc1nnnn1C(=NOCc1csc(NC(=O)CCCCl)n1)c1ccsc1Cl` [Compound 5], 3.
Compound `Cc1ccc(C(=NOCc2csc(NC(=O)CCCc3ccccc3)n2)n2nnnc2C)o1` [Compound 60] yielded a lipophilicity (LogP) of 3.4.
The result for `Cc1nnnn1C(=NOCc1csc(NC(=O)C2CC2)n1)c1ccc(-c2ccc(Cl)c(Cl)c2)o1` [Compound 84] reads 3.83.
With `Cc1ccc(C(=NOCc2cccc(N)n2)n2nnnc2C)o1` [Compound 72], the LogP is on record as 1.
For `COCCOCC(=O)Nc1nc(CON=C(c2ccc(C)o2)n2nnnc2C)cs1` [Compound 70], the LogP came out at 2.23.
Compound `Cc1nnnn1C(=NOCc1csc(NC(=O)OCc2ccccc2)n1)c1ccc(Cl)s1` [Compound 109] had a LogP of 3.93.
Under `CCCC(=O)Nc1nc(CON=C(c2ccc(-c3ccc(Cl)c(Cl)c3)o2)n2nnnc2C)cs1` [Compound 82] stands 4.11; under `Cc1nnnn1C(=NOCc1csc(NC(=O)C2CC2)n1)c1cc(-c2ccccc2)c(Cl)s1` [Compound 77], 4.03.
Under `CCCCCC(=O)Nc1nc(CON=C(c2ccc(Cl)s2)n2nnnc2C)cs1` [Compound 106] stands 4.12.
`CCc1nnnn1C(=NOCc1csc(NC(=O)C(C)C)n1)c1ccsc1` [Compound 43]: the LogP was found to be 3.04.
The result for `Cc1nnnn1C(=NOCc1csc(N)n1)c1cc(-c2ccccc2)c(Cl)s1` [Compound 76] reads 2.86.
Under `Cc1nnnn1C(=NOCc1csc(NC(=O)CCc2ccccc2)n1)c1ccc(Br)s1` [Compound 89] stands 3.76.
